# Laboratory results reported in patent US20140294763A1, “PEPTIDOMIMETIC PROTEASE INHIBITORS” (priority 2000, published 2014).
# Several values for one entry are separate records, joined by “and”; a condition that tells them apart may be missing. Identical values can stand only once. Like-named read-outs stand apart in the source and are kept apart here.
# Legend:
# [1] = tested on: HCV subgenomic RNA replicon in Huh7 cells; assay: HCV subgenomic RNA replicon assay (Replicon Assay), TaqMan RT-PCR of replicon RNA after 48 h treatment; type: cell-based, hepatitis C virus (HCV); conditions: for Inhibition of replicon RNA accumulation: 48 hour treatment
# Description: The Replicon Assay measures the amount of HCV subgenomic RNA (replicon RNA) remaining in replicon cells (Lohman et al. Science 285:110-113 (1999)) after two days of drug treatment relative to the amount of replicon RNA in untreated cells. In this assay, the potency of compounds as HCV antiviral drugs is directly proportional to the level of inhibition of replicon RNA accumulation.
# The Replicon Assay employing a cell line containing the self-replicating HCV subgenomic RNA (replicon) is described in Lohmann et al. Science 285:110-113 (1999). The Genbank accession number for the sequence of the replicon used in the experiments described herein is listed in this reference as AJ242654. This paper discloses methods for in vitro transcription of RNA from the replicon cDNA, transfection of the replicon RNA into Huh7 cells by electroporation, and selection of cells containing the replicon RNA using the antibiotic G418. Huh7 cells are a hepatoma cell line obtained from Dr. William Mason at Fox Chase Cancer Research Center (Philadelphia). These cells are publicly available from Fox Chase, and have been extensively described in the scientific literature (Nakabayashi at al. Cancer Res. 42:3858-3863 (1982)). In the experiments described herein, all of the template DNA is removed from the in vitro transcribed replicon RNA preparation prior to electroporation of this RNA into Huh7 cells by multiple treatment with DNase (three sequential treatments).
# The Replicon Assay is performed as described in detail below. Briefly, Replicon cells are placed in 96 well trays at a density of 10,000 cells per well and incubated 37° C. The cells are incubated in DMEM ([…]) supplemented with 10% fetal bovine serum, glutamine, nonessential amino acids, and the antibiotic G418 (0.25 mg/ml). […] Each compound is tested at six to eight different concentrations. […] Each HCV serine protease inhibitor concentration is tested without any added interferon, as well as with the addition of six to eight different interferon doses. Similarly, interferon is tested without any added HCV serine protease inhibitor. After a 48-hour incubation with the compounds, the medium is removed from the plates, and total cellular RNA is extracted from the cells using the RNeasy-96 kit manufactured by Qiagen Inc. (Valencia, Calif.). This RNA is then analyzed by quantitative RT-PCR, or TaqMan® (Applied Biosystems, Foster City Calif.). The TaqMan® RT-PCR target is the neomycin resistance gene in the replicon RNA. The plates are configured so that there are 5 replicates of each drug treatment sample, and 16 replicates of the untreated samples. This permits greater statistical confidence in the quantitative RT-PCR data.
# Analysis of the Replicon Assay data yields two values that are useful in assessing the potency of potential HCV antiviral agents. At each compound concentration tested, the level of inhibition in replicon RNA accumulation caused by the compound during two days of treatment relative to the amount of replicon RNA in untreated cells is determined. This is reported as percent inhibition. […] The IC50 is the value used to rank individual compounds tested in this assay based on their potency as HCV antiviral agents. Simple IC50 determinations are inadequate to assess the utility of compounds used in combination.
# The Replicon Assay is used to measure the capacity of potential HCV antiviral compounds to inhibit the accumulation of a HCV subgenomic RNA replicon molecule in a Huh7 cell line (Lohmann et al. Replication of Subgenomic Hepatitis C Virus RNAs in a Hepatoma Cell Line. Science 285, 110-113 (1999)).
# [2] = XTT metabolic assay to determine replicon cell viability; conditions: human
# Description: (§1) Inflamation Research. […] It is assumed that the level of GAPDH mRNA, which is a constitutively expressed housekeeping gene, is the same in all viable cells. […] Thus, it is postulated, as done by others using TaqMan® technology to determine the levels of particular mRNAs in human cells, that GAPDH mRNA levels are proportional to viable cell numbers (VCN) in any given sample, with the relationship of VCN=2^̂(40−CtGAPDH mRNA). The VCN is computed for each of the Replicon Assay sample wells, and then we divide the HCV Replicon RNA copy number for a specific well by the VCN for that well. Once computed, this ratio is used instead of the HCV copy number to compute inhibition (“Avg. Inh using ratio”; FIG. 14A). […] In the Replicon Assay, it is assumed that the measured inhibition of HCV RNA replicon accumulation is the sum of the actual inhibition of HCV RNA replicon accumulation and the apparent inhibition of HCV RNA replicon accumulation due to cytoxicity. […] Thus, the true anti-HCV activity of a compound in the Replicon Assay corrected for general cytotoxicity can be estimated by dividing the number of HCV replicon RNA molecules measured in each sample by the VCN, thus normalizing to the number of viable cells in each sample. […] In FIG. 14A, “Avg.
# [3] = tested on: replicon cells (glyceraldehyde-3-phosphate dehydrogenase (GAPDH) mRNA levels); assay: TaqMan quantitative RT-PCR of GAPDH mRNA levels in treated versus untreated replicon cells (cytotoxicity measure); conditions: treated versus untreated cells in the Replicon Assay
# Description: as §1
# [4] = Hepatitis C virus, Huh-7, 48 h, read-out: IC50 HSPI, antiviral compound used individually, HCV replicon RNA accumulation, 48 h, response-surface fit (Ribavirin corrected for cytotoxicity)
# [5] = read-out: IC50 HSPI, antiviral compound used individually, HCV replicon RNA accumulation, 48 h, response-surface fit (Ribavirin corrected for cytotoxicity)
compound,measurement,setting,value
CCC[C@H](NC(=O)[C@@H]1[C@H]2CCC[C@H]2CN1C(=O)[C@@H](NC(=O)[C@@H](NC(=O)c1cnccn1)C1CCCCC1)C(C)(C)C)C(=O)C(=O)NC1CC1 [Compound CU],Inhibition of replicon RNA accumulation,[1]; Compound CU 0.0123 μM alone (interferon-alpha 2B 0 U),5%
same,Inhibition of replicon RNA accumulation,[1]; Compound CU 0.0370 μM alone (interferon-alpha 2B 0 U),8%
same,Inhibition of replicon RNA accumulation,[1]; Compound CU 0.1111 μM alone (interferon-alpha 2B 0 U),11%
same,Inhibition of replicon RNA accumulation,[1]; Compound CU 0.333 μM alone (interferon-alpha 2B 0 U),28%
same,Inhibition of replicon RNA accumulation,[1]; Compound CU 1 μM alone (interferon-alpha 2B 0 U),88%
same,Inhibition of replicon RNA accumulation,[1]; Compound CU 3 μM alone (interferon-alpha 2B 0 U),98%
same,IC50,"[1]; Hepatitis C virus, Huh-7, 48 h, Compound CU as single drug treatment, initial experiment, replicon RNA accumulation 48 h",480 nM
same,IC50,[1]; [4],469 nM
same,IC50,[1]; [5],446 nM and 587 nM and 633 nM and 605 nM and 466 nM
same,CC50,[2]; HCV replicon cells (Huh7),64700 nM
CCC[C@H](NC(=O)C1[C@H]2CCC[C@H]2CN1C(=O)[C@@H](NC(=O)[C@@H](NC(=O)[C@@H](C)NC(=O)OC)C1CCCCC1)C(C)(C)C)C(=O)C(=O)NC1CC1 (stereo partly shown) [Compound EC],IC50,[1]; [4],384 nM
same,IC50,[1]; [5],312 nM
same,CC50,[2]; HCV replicon cells (Huh7),> 50000 nM
CCC[C@@H](NC(=O)[C@@H]1[C@H]2CCCC2CN1C(=O)[C@@H](NC(=O)[C@H](NC(=O)c1cnccn1)C1CCCCC1)[C@H](C)CC)C(=O)C(=O)NC1CC1 (stereo partly shown) [Compound EP],IC50,[1]; [4],426 nM
same,CC50,[2],> 10000 nM
"NC(=O)c1ncn([C@@H]2O[C@H](CO)[C@@H](O)[C@H]2O)n1 [Ribavirin, reference compound]",IC50,[1]; [4],145000 nM
same,IC50,"[1]; Hepatitis C virus, Huh-7, read-out: uncorrected IC50 (Avg. Inh original), not corrected for cytotoxicity",~80000 nM
same,reduction of accumulation of HCV replicon RNA (in words),[1]; compound alone,marginally effective
same,"cytotoxicity (GAPDH mRNA levels, TaqMan RT-PCR)",[3],significant Ribavirin-induced cytotoxicity
